Experimental data as given in patent publication US10793580B2, “Substituted pyrazoloazepin-8-ones and their use as phosphodiesterase inhibitors” (LEO Pharma A/S, priority 2016, dated 2020).
pIC50: −log10 of the molar value. Like-named read-outs stand apart in the source and are kept apart here.

Molecular target: human PDE4D catalytic domain (Homo sapiens (Human), UniProt Q08499)
Test: PDE4 Assay (TR-FRET, FAM-cAMP cleavage)
Format: biochemical
Settings: read-out: PDE4 IC50 range
In short: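 PDE4D catalytic domain (S380-L740) incubated briefly with unlabelled cAMP plus FAM-cAMP and titrated compound. Reaction stopped with binding buffer holding metal-ion nanoparticles that bind AMP phospho groups and Tb donor, and AMP formation read by TR-FRET. IC50 versus controls, reported as ranges (nM).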

[1] = human PDE4D catalytic domain (UniProt Q08499 [S380-L740]), 50% inhibition of substrate cleavage

human PDE4D catalytic domain, sequence (Q08499 380-740): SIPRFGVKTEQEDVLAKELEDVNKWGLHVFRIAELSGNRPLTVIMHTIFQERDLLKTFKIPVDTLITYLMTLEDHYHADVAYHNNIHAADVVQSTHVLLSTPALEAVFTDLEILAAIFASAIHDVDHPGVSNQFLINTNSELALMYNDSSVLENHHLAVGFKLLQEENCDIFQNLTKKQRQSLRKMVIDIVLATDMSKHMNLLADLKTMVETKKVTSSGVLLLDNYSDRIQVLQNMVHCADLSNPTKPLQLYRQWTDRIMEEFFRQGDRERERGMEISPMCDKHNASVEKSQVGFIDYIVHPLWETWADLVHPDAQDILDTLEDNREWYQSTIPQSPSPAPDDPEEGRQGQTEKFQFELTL

Row | Compound | pIC50 [1] | pIC50 (Table 17, Examples 297-316) | also measured
1 | CCn1nc(C[C@@H](C)COC(=O)c2ccc(C(=O)N(C)C)cc2)c2c1C(=O)NCC1(CCOCC1)C2 [Example 171, [(2R)-3-(1-ethyl-8-oxo-spiro[6,7-dihydro-4H-pyrazolo[3,4-c]azepine-5,4′-tetrahydropyran]-3-yl)-2-methyl-propyl] 4-(di-methylcarbamoyl)benzoate] | > 7.00 |  | 
2 | CCn1nc(CCOC(=O)c2cnsc2)c2c1C(=O)NCC1(CCOCC1)C2 [Example 275, 2-(1-ethyl-8-oxo-spiro[6,7-dihydro-4H-pyrazolo[3,4-c]azepine-5,4′-tetrahydropyran]-3-yl)ethyl isothiazole-4-carboxylate] | > 7.00 |  | 
3 | CCn1nc(C[C@@H](C)COC(=O)c2cccc(C(=O)N3CCN(C(C)=O)CC3)c2)c2c1C(=O)NCC1(CCOCC1)C2 [Example 185, [(2R)-3-(1-ethyl-8-oxo-spiro[6,7-dihydro-4H-pyrazolo[3,4-c]azepine-5,4′-tetrahydropyran]-3-yl)-2-methyl-propyl] 3-(4-acetylpiperazine-1-carbonyl)benzoate] | > 7.00 |  | 
4 | CCn1nc(CC(C)(C)COC(=O)c2cnc(C)s2)c2c1C(=O)NCC1(CCOCC1)C2 [Example 311, [3-(1-ethyl-8-oxo-spiro[6,7-dihydro-4H-pyrazolo[3,4-c]azepine-5,4′-tetrahydropyran]-3-yl)-2,2-dimethyl-propyl] 2-methylthiazole-5-carboxylate] |  | > 7.00 | 
5 | CCn1nc(C[C@@H](C)COC(=O)C2CCN(C)CC2)c2c1C(=O)NCC1(CCOCC1)C2 [Example 292, [(2R)-3-(1-ethyl-8-oxo-spiro[6,7-dihydro-4H-pyrazolo[3,4-c]azepine-5,4′-tetrahydropyran]-3-yl)-2-methyl-propyl] 1-methylpiperidine-4-carboxylate] |  |  | pIC50 (Table 16, Examples 277-296): 6.30 to 7.00
6 | CCn1nc(CCCOC(=O)c2ccc(OC)c(F)c2)c2c1C(=O)NCC1(CCOCC1)C2 [Example 35, 3-(1-ethyl-8-oxo-spiro[6,7-dihydro-4H-pyrazolo[3,4-c]azepine-5,4′-tetrahydropyran]-3-yl)propyl 3-fluoro-4-methoxy-benzoate] | > 7.00 |  | 
7 | CCn1nc(CC(C)(C)COC(=O)c2cc(C)nc(C)c2)c2c1C(=O)NCC1(CCOCC1)C2 [Example 313, [3-(1-ethyl-8-oxo-spiro[6,7-dihydro-4H-pyrazolo[3,4-c]azepine-5,4′-tetrahydropyran]-3-yl)-2,2-dimethyl-propyl] 2,6-dimethylpyridine-4-carboxylate] |  | > 7.00 | 
8 | CCn1nc(CCCOC(=O)C2CCOCC2)c2c1C(=O)NCC1(CCOCC1)C2 [Example 246, 3-(1-ethyl-8-oxo-spiro[6,7-dihydro-4H-pyrazolo[3,4-c]azepine-5,4′-tetrahydropyran]-3-yl)propyl tetrahydropyran-4-carboxylate] | > 7.00 |  | 
9 | CCc1cc(C(=O)OCCCc2nn(CC)c3c2CC2(CCOCC2)CNC3=O)nn1C [Example 259, 3-(1-ethyl-8-oxo-spiro[6,7-dihydro-4H-pyrazolo[3,4-c]azepine-5,4′-tetrahydro-pyran]-3-yl)propyl 5-ethyl-1-methyl-pyrazole-3-carboxylate] | > 7.00 |  | 
10 | CCn1nc(CC(C)(C)COC(=O)c2cnc(C)o2)c2c1C(=O)NCC1(CCOCC1)C2 [Example 302, [3-(1-ethyl-8-oxo-spiro[6,7-dihydro-4H-pyrazolo[3,4-c]azepine-5,4′-tetrahydropyran]-3-yl)-2,2-dimethyl-propyl] 2-methyloxazole-5-carboxylate] |  | > 7.00 | 
11 | CCn1nc(CC(C)(C)COC(=O)C2CCOCC2)c2c1C(=O)NCC1(CCOCC1)C2 [Example 307, [3-(1-ethyl-8-oxo-spiro[6,7-dihydro-4H-pyrazolo[3,4-c]azepine-5,4′-tetrahydro-pyran]-3-yl)-2,2-dimethyl-propyl] tetrahydropyran-4-carboxylate] |  | > 7.00 | 
12 | CCn1nc(CCCOC(=O)c2cccc(S(=O)(=O)N3CCOCC3)c2)c2c1C(=O)NCC1(CCOCC1)C2 [Example 99, 3-(1-ethyl-8-oxo-spiro[6,7-dihydro-4H-pyrazolo[3,4-c]azepine-5,4′-tetrahydropyran]-3-yl)propyl 3-morpholinosulfonylbenzoate] | > 7.00 |  | 
